Assays:
Type in all cases: cell-based
[1] = tested on: HCT-116 colorectal cancer cell line; assay: CCK-8 proliferation inhibition; details: Homo sapiens, HCT-116, 72 h, concentration of 30 μM; 72 hours; CCK-8; read-out: HCT116 inhibition rate/%
Method in brief: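 Growth inhibition is read by CCK-8 (1:10 dilution) after 72 h of compound exposure. HCT-116 cells grow in McCoy's 5A containing 10% newborn bovine serum at 2000 cells/well, with 1‰ DMSO as vehicle control.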

[2] = tested on: Streptococcus pneoumoniae (SPN); assay: MIC, two-fold agar dilution (CLSI), clinical isolates
Method in brief: (§1)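 Test samples were assayed by the CLSI-recommended two-fold agar dilution method, and the minimum inhibitory concentration against each tested strain was determined.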

[3] = tested on: Moraxella catarrhalis (BCA); assay: as above
Method in brief: as §1

[4] = tested on: methicillin-sensitive Staphylococcus aureus (MSSA); assay: as above
Method in brief: as §1

[5] = tested on: methicillin-sensitive Staphylococcus epidermidis (MSSE); assay: as above
Method in brief: as §1

[6] = tested on: Enterococcus faecium (EFM); assay: as above
Method in brief: as §1

[7] = tested on: Enterococcus faecalis (EFA); assay: as above
Method in brief: as §1

[8] = tested on: methicillin-resistant Staphylococcus epidermidis (MRSE); assay: as above
Method in brief: as §1

[9] = tested on: methicillin-resistant Staphylococcus aureus (MRSA); assay: as above
Method in brief: as §1

[10] = tested on: Escherichia coli (including ESBLs, non-ESBLs); assay: as above
Method in brief: as §1

Structure (SMILES): CCCC[C@H](CC(=O)NO)C(=O)N1CC2(CC2)C[C@H]1C(=O)Nc1cnccn1 [Example 44]
- inhibition at 30 µM [1]: 21%
- Anti-bacterial activity (MIC), strain SPN 16-2 ([2]; clinical isolate SPN 16-2): 1 µg/mL
- Anti-bacterial activity (MIC), strain SPN 16-4 ([2]; clinical isolate SPN 16-4): 1 µg/mL
- Anti-bacterial activity (MIC), strain BCA 14-1 ([3]; clinical isolate BCA 14-1): 4 µg/mL
- Anti-bacterial activity (MIC), strain BCA 14-4 ([3]; clinical isolate BCA 14-4): 4 µg/mL
- Anti-bacterial activity (MIC), strain BCA 14-5 ([3]; clinical isolate BCA 14-5): 1 µg/mL
- Anti-bacterial activity (MIC), strain BCA 14-6 ([3]; clinical isolate BCA 14-6): 2 µg/mL
- Anti-bacterial activity (MIC), strain BCA 14-7 ([3]; clinical isolate BCA 14-7): 4 µg/mL
- Anti-bacterial activity (MIC), strain BCA 14-8 ([3]; clinical isolate BCA 14-8): 4 µg/mL
- Anti-bacterial activity (MIC), strain BCA 14-10 ([3]; clinical isolate BCA 14-10): 2 µg/mL
- Anti-bacterial activity (MIC), strain MSSA 15-3 ([4]; clinical isolate MSSA 15-3): 0.5 µg/mL
- Anti-bacterial activity (MIC), strain MSSA 15-4 ([4]; clinical isolate MSSA 15-4): 1 µg/mL
- Anti-bacterial activity (MIC), strain MSSA 15-5 ([4]; clinical isolate MSSA 15-5): 1 µg/mL
- Anti-bacterial activity (MIC), strain MSSA 15-6 ([4]; clinical isolate MSSA 15-6): > 32 µg/mL
- Anti-bacterial activity (MIC), strain MSSE 15-3 ([5]; clinical isolate MSSE 15-3): 1 µg/mL
- Anti-bacterial activity (MIC), strain MSSE 15-4 ([5]; clinical isolate MSSE 15-4): 1 µg/mL
- Anti-bacterial activity (MIC), strain MSSE 15-5 ([5]; clinical isolate MSSE 15-5): 1 µg/mL
- Anti-bacterial activity (MIC), strain MSSE 15-6 ([5]; clinical isolate MSSE 15-6): 1 µg/mL
- Anti-bacterial activity (MIC), strain EFM 15-1 ([6]; clinical isolate EFM 15-1): > 32 µg/mL
- Anti-bacterial activity (MIC), strain EFM 15-2 ([6]; clinical isolate EFM 15-2): > 32 µg/mL
- Anti-bacterial activity (MIC), strain EFM 15-3 ([6]; clinical isolate EFM 15-3): > 32 µg/mL
- Anti-bacterial activity (MIC), strain EFM 15-4 ([6]; clinical isolate EFM 15-4): > 32 µg/mL
- Anti-bacterial activity (MIC), strain EFM 15-5 ([6]; clinical isolate EFM 15-5): 1 µg/mL
- Anti-bacterial activity (MIC), strain EFM 15-6 ([6]; clinical isolate EFM 15-6): 2 µg/mL
- Anti-bacterial activity (MIC), strain EFA 15-1 ([7]; clinical isolate EFA 15-1): > 32 µg/mL
- Anti-bacterial activity (MIC), strain EFA 15-2 ([7]; clinical isolate EFA 15-2): > 32 µg/mL
- Anti-bacterial activity (MIC), strain EFA 15-3 ([7]; clinical isolate EFA 15-3): > 32 µg/mL
- Anti-bacterial activity (MIC), strain EFA 15-4 ([7]; clinical isolate EFA 15-4): > 32 µg/mL
- Anti-bacterial activity (MIC), strain EFA 15-5 ([7]; clinical isolate EFA 15-5): > 32 µg/mL
- Anti-bacterial activity (MIC), strain EFA 15-6 ([7]; clinical isolate EFA 15-6): > 32 µg/mL
- Anti-bacterial activity (MIC), strain EFA 15-9 ([7]; clinical isolate EFA 15-9): 32 µg/mL
- Anti-bacterial activity (MIC), strain MRSE 15-1 ([8]; clinical isolate MRSE 15-1): 1 µg/mL
- Anti-bacterial activity (MIC), strain MRSE 15-2 ([8]; clinical isolate MRSE 15-2): 1 µg/mL
- Anti-bacterial activity (MIC), strain MRSE 15-3 ([8]; clinical isolate MRSE 15-3): 1 µg/mL
- Anti-bacterial activity (MIC), strain MRSE 15-7 ([8]; clinical isolate MRSE 15-7): 1 µg/mL
- Anti-bacterial activity (MIC), strain MRSA 15-1 ([9]; clinical isolate MRSA 15-1): 0.5 µg/mL
- Anti-bacterial activity (MIC), strain MRSA 15-2 ([9]; clinical isolate MRSA 15-2): 1 µg/mL
- Anti-bacterial activity (MIC), strain MRSA 15-3 ([9]; clinical isolate MRSA 15-3): 1 µg/mL
- Anti-bacterial activity (MIC), strain MRSA 15-4 ([9]; clinical isolate MRSA 15-4): 1 µg/mL
- Anti-bacterial activity (MIC), strain ECO+ 15-1 ([10]; clinical isolate ECO+ 15-1): 32 µg/mL
- Anti-bacterial activity (MIC), strain ECO+ 15-2 ([10]; clinical isolate ECO+ 15-2): > 32 µg/mL
- Anti-bacterial activity (MIC), strain ECO+ 15-3 ([10]; clinical isolate ECO+ 15-3): > 32 µg/mL
- Anti-bacterial activity (MIC), strain ECO+ 15-4 ([10]; clinical isolate ECO+ 15-4): 1 µg/mL
- Anti-bacterial activity (MIC), strain ECO− 15-1 ([10]; clinical isolate ECO− 15-1): 32 µg/mL
- Anti-bacterial activity (MIC), strain ECO− 15-2 ([10]; clinical isolate ECO− 15-2): > 32 µg/mL
- Anti-bacterial activity (MIC), strain ECO− 15-3 ([10]; clinical isolate ECO− 15-3): > 32 µg/mL
- Anti-bacterial activity (MIC), strain ECO− 15-4 ([10]; clinical isolate ECO− 15-4): > 32 µg/mL
